Data published in patent US11850252B2, “Use of nor-ursodeoxycholic acid for reducing liver fat” (Dr. Falk Pharma GmbH, priority 2017, dated 2023).
“And” between values parts separate entries of the source, which are not always exact repeats. Equal values may be shown once.

Tested on: Patients with a clinical diagnosis of non-alcoholic hepatic steatosis
Assay: Liver enzymes (serum ALT, AST, GGT, AP, bilirubin), phase II clinical trial;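 as to Serum bilirubin, Mean ± SD: unit mg/dL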
Format: in vivo, human
Method: A double-blinded, randomized, placebo-controlled phase II clinical trial was conducted as described in the following.
Patients with a clinical diagnosis of non-alcoholic hepatic steatosis were randomized to a 12-week treatment period and a 4-week follow-up. Patients were divided into three groups. The first groups received 1,500 mg Nor-UDCA per day (6 capsules with 250 mg Nor-UDCA in each capsule). The second group received 500 mg Nor-UDCA per day (2 capsules with 250 mg Nor-UDCA in each capsule and 4 capsules with 250 mg placebo in each capsule). The third group received 6 capsules with 250 mg placebo in each capsule.
The effects of Nor-UDCA on liver enzyme values have been assessed with respect to the courses of ALT, AST, GGT, AP and serum bilirubin. In addition, treatment effects with respect to pre-defined outcome criteria based on the upper limits of normal (ULN) of ALT, AST and GGT were examined.
The serum levels of ALT, AST, GGT, AP and serum bilirubin were determined by established standard laboratory methods.

[1] = N500 (500 mg/day), V2 baseline week 0
[2] = N500 (500 mg/day), V6 (LOCF)-V2

CC(CC(=O)O)[C@H]1CCC2[C@H]3C(CC[C@@]21C)[C@@]1(C)CCC(O)C[C@H]1C[C@@H]3O (stereo partly drawn) [Nor-UDCA, 24-nor-ursodeoxycholic acid]
mean absolute change of ALT from V2 to V6-LOCF (N500 (500 mg/day)): −7.0 U/I
patients fulfilling criterion AST>0.33 ULN to ≤0.67 ULN (N500 (500 mg/day)): 26.4%
patients fulfilling outcome criterion GGT>0.33 ULN to ≤0.67 (N500 (500 mg/day)): 13.0%
patients with combined criterion of ALT and/or AST decrease 15% (N500 (500 mg/day)): 49.3%
proportion of patients fulfilling criterion AST<1.5 ULN (N500 (500 mg/day)): 50.0%
proportion of patients fulfilling criterion AST<ULN (N500 (500 mg/day)): 27.3%
proportion of patients, criterion GGT ULN (N500 (500 mg/day)): 12.2%
GGT (N500 (500 mg/day), V2): 144.7 U/I
ALT, Mean ± SD [1]: 80.3 ± 33.3 U/l
ALT/AST, Mean ± SD [1]: 1.71 ± 0.50
AP, Mean ± SD [1]: 83.9 ± 27.6 U/l
AST, Mean ± SD [1]: 49.8 ± 27.4 U/l
GGT, Mean ± SD [1]: 144.7 ± 160.0 U/l
Serum bilirubin, Mean ± SD [1]: 0.64 ± 0.40 mg/dL
change of AST (N500 (500 mg/day), V2 to V6-LOCF): −3.8 U/I
ALT, Mean ± SD (N500 (500 mg/day), V3 week 2): 79.4 ± 40.6 U/l
ALT/AST, Mean ± SD (N500 (500 mg/day), V3 week 2): 1.70 ± 0.51
AP, Mean ± SD (N500 (500 mg/day), V3 week 2): 88.3 ± 34.3 U/l
AST, Mean ± SD (N500 (500 mg/day), V3 week 2): 47.9 ± 22.4 U/l
GGT, Mean ± SD (N500 (500 mg/day), V3 week 2): 151.9 ± 166.4 U/l
Serum bilirubin, Mean ± SD (N500 (500 mg/day), V3 week 2): 0.63 ± 0.38 mg/dL
ALT, Mean ± SD (N500 (500 mg/day), V4 week 4): 75.2 ± 34.6 U/l
ALT/AST, Mean ± SD (N500 (500 mg/day), V4 week 4): 1.67 ± 0.48
AP, Mean ± SD (N500 (500 mg/day), V4 week 4): 86.5 ± 34.3 U/l
AST, Mean ± SD (N500 (500 mg/day), V4 week 4): 46.0 ± 18.8 U/l
GGT, Mean ± SD (N500 (500 mg/day), V4 week 4): 138.9 ± 141.6 U/l
Serum bilirubin, Mean ± SD (N500 (500 mg/day), V4 week 4): 0.61 ± 0.38 mg/dL
ALT, Mean ± SD (N500 (500 mg/day), V5 week 8): 75.6 ± 36.8 U/l
ALT/AST, Mean ± SD (N500 (500 mg/day), V5 week 8): 1.66 ± 0.47
AP, Mean ± SD (N500 (500 mg/day), V5 week 8): 86.1 ± 30.0 U/l
AST, Mean ± SD (N500 (500 mg/day), V5 week 8): 46.9 ± 24.4 U/l
GGT, Mean ± SD (N500 (500 mg/day), V5 week 8): 133.6 ± 124.2 U/l
Serum bilirubin, Mean ± SD (N500 (500 mg/day), V5 week 8): 0.64 ± 0.41 mg/dL
ALT, Mean ± SD (N500 (500 mg/day), V6 (LOCF)): 72.8 ± 33.2 U/l
ALT/AST, Mean ± SD (N500 (500 mg/day), V6 (LOCF)): 1.67 ± 0.48
AP, Mean ± SD (N500 (500 mg/day), V6 (LOCF)): 86.9 ± 32.2 U/l
AST, Mean ± SD (N500 (500 mg/day), V6 (LOCF)): 45.6 ± 24.7 U/l
GGT, Mean ± SD (N500 (500 mg/day), V6 (LOCF)): 137.6 ± 144.8 U/l
Serum bilirubin, Mean ± SD (N500 (500 mg/day), V6 (LOCF)): 0.62 ± 0.38 mg/dL
ALT change, Mean ± SD [2]: −7.0 ± 27.4 U/l
ALT/AST ratio change, Mean ± SD [2]: −0.05 and −0.05 ± 0.37
AST change, Mean ± SD [2]: −3.8 ± 14.3 U/l
Serum bilirubin change, Mean ± SD [2]: -0.01 ± 0.22 mg/dL
GGT (N500 (500 mg/day), V6-LOCF): 137.6 U/I
ALT, Mean ± SD (N500 (500 mg/day), V6 week 12): 70.8 ± 31.6 U/l
ALT/AST, Mean ± SD (N500 (500 mg/day), V6 week 12): 1.66 ± 0.45
AP, Mean ± SD (N500 (500 mg/day), V6 week 12): 87.4 ± 32.7 U/l
AST, Mean ± SD (N500 (500 mg/day), V6 week 12): 43.9 ± 20.4 U/l
GGT, Mean ± SD (N500 (500 mg/day), V6 week 12): 139.2 ± 147.6 U/l
Serum bilirubin, Mean ± SD (N500 (500 mg/day), V6 week 12): 0.62 ± 0.36 mg/dL
patients fulfilling outcome criterion ALT≤0.8 ULN (N500 (500 mg/day), patients with ALT>0.8 at baseline): 14.8%
patients fulfilling outcome criterion ALT<ULN (N500 (500 mg/day), patients with ALT>1.0 at baseline): 16.9%
patients fulfilling outcome criterion ALT<1.5 ULN (N500 (500 mg/day), patients with ALT>1.5 at baseline): 37.9%
mean absolute change of ALT from V2 to V6-LOCF (N1500 (1,500 mg/day)): −17.2 U/I
patients fulfilling criterion AST>0.33 ULN to ≤0.67 ULN (N1500 (1,500 mg/day)): 32.7%
patients fulfilling outcome criterion GGT>0.33 ULN to ≤0.67 (N1500 (1,500 mg/day)): 21.6%
patients with combined criterion of ALT and/or AST decrease 15% (N1500 (1,500 mg/day)): 71.6%
